Read-outs that look alike come from different tables or passages of the source. Values belong to the compound of their own block, whether it stands above or below them.
Tests used:
Assay in all cases: Cysteine liganding, probe competition
Assay type in all cases: binding
UniProt Q9UPQ4 = biological target: T1, UniProt Q9UPQ4 (Homo sapiens, UniProt Q9UPQ4)
T1 construct: 200 μL of lysate containing 5 mg/ml proteome was treated with 2 μL of 100× compound stock; endogenous in cells
T1 sequence (Q9UPQ4 1-493): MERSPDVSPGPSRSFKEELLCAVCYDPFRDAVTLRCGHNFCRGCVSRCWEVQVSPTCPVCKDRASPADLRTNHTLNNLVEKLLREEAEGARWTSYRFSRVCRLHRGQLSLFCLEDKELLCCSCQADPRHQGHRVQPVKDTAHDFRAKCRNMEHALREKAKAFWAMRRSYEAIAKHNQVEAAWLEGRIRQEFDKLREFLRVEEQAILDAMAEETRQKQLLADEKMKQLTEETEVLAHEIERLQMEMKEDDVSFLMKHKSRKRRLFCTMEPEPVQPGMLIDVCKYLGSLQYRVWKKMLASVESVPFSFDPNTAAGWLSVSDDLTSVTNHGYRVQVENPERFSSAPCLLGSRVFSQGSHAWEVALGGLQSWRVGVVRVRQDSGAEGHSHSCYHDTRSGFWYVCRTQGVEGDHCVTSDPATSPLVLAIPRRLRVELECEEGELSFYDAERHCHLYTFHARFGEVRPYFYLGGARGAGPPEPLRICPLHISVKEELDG
Description: (§1) The following 96-well sample prep protocol was used for sample preparation.

UniProt Q9C026 = biological target: T2, UniProt Q9C026 (Homo sapiens, UniProt Q9C026)
T2 construct: 200 μL of lysate containing 5 mg/ml proteome was treated with 2 μL of 100× compound stock; endogenous in cells
Description: as §1

UniProt Q96EX2 = biological target: T3, UniProt Q96EX2 (Homo sapiens, UniProt Q96EX2); details: for inhibition at 100 µM / inhibition at 500 µM: read-out: percent_inhibition
T3 construct: 200 μL of lysate containing 5 mg/ml proteome was treated with 2 μL of 100× compound stock; endogenous in cells
T3 sequence (Q96EX2 1-444): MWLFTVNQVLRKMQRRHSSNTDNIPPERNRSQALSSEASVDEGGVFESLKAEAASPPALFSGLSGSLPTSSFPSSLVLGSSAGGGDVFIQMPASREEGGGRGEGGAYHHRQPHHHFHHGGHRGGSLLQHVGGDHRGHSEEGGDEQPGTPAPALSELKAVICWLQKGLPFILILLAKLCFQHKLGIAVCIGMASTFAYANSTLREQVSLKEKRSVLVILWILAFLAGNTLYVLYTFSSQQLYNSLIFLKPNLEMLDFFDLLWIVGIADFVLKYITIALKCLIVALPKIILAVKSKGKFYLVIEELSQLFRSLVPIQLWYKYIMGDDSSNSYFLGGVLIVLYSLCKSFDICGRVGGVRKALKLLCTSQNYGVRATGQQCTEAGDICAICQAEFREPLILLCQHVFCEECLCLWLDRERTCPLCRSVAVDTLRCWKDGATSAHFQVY
Description: as §1

UniProt Q9H0A6 = biological target: T4, UniProt Q9H0A6 (Homo sapiens, UniProt Q9H0A6)
T4 construct: 200 μL of lysate containing 5 mg/ml proteome was treated with 2 μL of 100× compound stock; endogenous in cells
Description: as §1

UniProt Q9BWF2 = biological target: T5, UniProt Q9BWF2 (Homo sapiens, UniProt Q9BWF2)
T5 construct: 200 μL of lysate containing 5 mg/ml proteome was treated with 2 μL of 100× compound stock; endogenous in cells
T5 sequence (Q9BWF2 1-469): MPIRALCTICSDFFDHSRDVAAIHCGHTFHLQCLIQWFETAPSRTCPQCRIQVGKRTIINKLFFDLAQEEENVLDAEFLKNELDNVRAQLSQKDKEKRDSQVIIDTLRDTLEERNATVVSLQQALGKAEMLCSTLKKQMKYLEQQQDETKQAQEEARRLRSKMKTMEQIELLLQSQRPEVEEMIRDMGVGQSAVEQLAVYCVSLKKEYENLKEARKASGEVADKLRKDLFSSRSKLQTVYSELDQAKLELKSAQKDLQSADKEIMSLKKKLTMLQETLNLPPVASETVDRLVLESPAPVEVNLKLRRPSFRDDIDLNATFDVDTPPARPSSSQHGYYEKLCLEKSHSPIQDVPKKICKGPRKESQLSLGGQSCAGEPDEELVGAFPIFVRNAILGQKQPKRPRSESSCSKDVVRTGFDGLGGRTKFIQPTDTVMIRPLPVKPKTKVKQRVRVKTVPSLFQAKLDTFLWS
Description: as §1

UniProt Q9UJ41 = biological target: T6, UniProt Q9UJ41 (Homo sapiens, UniProt Q9UJ41)
T6 construct: 200 μL of lysate containing 5 mg/ml proteome was treated with 2 μL of 100× compound stock; endogenous in cells
Description: as §1

UniProt Q496Y0 = biological target: T7, UniProt Q496Y0 (Homo sapiens, UniProt Q496Y0)
T7 construct: 200 μL of lysate containing 5 mg/ml proteome was treated with 2 μL of 100× compound stock; endogenous in cells
Description: as §1

UniProt Q9BZR9 = biological target: T8, UniProt Q9BZR9 (Homo sapiens, UniProt Q9BZR9)
T8 construct: 200 μL of lysate containing 5 mg/ml proteome was treated with 2 μL of 100× compound stock; endogenous in cells
T8 sequence (Q9BZR9 1-551): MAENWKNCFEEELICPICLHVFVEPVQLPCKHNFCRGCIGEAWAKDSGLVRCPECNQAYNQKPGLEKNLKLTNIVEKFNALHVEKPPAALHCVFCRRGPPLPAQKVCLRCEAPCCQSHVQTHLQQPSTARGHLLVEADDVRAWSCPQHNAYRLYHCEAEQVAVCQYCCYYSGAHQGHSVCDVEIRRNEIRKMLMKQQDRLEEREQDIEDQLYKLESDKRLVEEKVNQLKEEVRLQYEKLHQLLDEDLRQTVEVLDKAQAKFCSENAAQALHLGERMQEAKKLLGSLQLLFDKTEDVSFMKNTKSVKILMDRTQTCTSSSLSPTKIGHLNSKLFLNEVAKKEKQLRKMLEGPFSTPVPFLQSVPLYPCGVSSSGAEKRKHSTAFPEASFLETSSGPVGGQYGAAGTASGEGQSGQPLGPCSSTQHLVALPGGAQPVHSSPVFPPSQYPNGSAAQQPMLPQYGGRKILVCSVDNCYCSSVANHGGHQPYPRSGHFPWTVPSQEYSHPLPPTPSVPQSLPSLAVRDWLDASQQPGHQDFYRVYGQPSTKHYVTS
Description: as §1

UniProt P49792 = biological target: T9, UniProt P49792 (Homo sapiens, UniProt P49792); details: 500 uM
T9 construct: 200 μL of lysate containing 5 mg/ml proteome was treated with 2 μL of 100× compound stock; endogenous in cells
Description: as §1

UniProt P36406 = biological target: T10, UniProt P36406 (Homo sapiens, UniProt P36406)
T10 construct: 200 μL of lysate containing 5 mg/ml proteome was treated with 2 μL of 100× compound stock; endogenous in cells
Description: as §1

UniProt Q13049 = biological target: T11, UniProt Q13049 (Homo sapiens, UniProt Q13049)
T11 construct: 200 μL of lysate containing 5 mg/ml proteome was treated with 2 μL of 100× compound stock; endogenous in cells
Description: as §1

[1] = 100 uM, read-out: KB02_100 uM_percent_inhibition
[2] = 500 uM, read-out: KB02_500 uM_percent_inhibition
[3] = 500 uM, read-out: percent_inhibition
[4] = read-out: KB05_100 uM_percent_inhibition

T7 sequence (Q496Y0 whole entry, change not shown): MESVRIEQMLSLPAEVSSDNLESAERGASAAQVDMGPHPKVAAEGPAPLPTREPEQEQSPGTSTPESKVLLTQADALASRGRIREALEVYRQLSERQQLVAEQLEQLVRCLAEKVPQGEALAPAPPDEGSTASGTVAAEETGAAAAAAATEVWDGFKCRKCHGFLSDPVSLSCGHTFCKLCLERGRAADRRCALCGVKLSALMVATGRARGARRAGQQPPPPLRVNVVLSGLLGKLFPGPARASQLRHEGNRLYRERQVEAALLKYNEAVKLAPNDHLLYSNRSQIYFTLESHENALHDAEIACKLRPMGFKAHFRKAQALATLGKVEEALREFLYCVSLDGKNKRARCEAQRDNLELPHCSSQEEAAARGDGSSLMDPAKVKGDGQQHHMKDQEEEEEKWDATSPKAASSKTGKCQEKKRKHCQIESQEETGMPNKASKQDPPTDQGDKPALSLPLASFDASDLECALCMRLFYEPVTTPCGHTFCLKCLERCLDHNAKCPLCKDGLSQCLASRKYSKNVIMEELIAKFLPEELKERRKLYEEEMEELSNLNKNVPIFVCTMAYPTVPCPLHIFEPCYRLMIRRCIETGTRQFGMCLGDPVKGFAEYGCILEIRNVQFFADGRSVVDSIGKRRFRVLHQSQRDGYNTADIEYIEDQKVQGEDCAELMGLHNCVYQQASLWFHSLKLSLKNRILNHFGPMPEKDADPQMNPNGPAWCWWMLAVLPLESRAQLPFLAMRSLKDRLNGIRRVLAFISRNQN
T4 sequence (Q9H0A6 whole entry, change not shown): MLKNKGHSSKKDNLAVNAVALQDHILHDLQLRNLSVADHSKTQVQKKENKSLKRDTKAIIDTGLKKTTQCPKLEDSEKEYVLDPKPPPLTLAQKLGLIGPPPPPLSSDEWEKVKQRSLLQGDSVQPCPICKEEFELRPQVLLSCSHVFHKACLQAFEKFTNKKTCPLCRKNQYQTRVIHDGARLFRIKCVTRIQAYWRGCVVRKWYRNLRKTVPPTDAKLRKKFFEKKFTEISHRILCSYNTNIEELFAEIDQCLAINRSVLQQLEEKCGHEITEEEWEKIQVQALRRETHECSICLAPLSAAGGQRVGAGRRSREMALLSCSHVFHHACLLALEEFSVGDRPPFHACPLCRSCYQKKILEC
T2 sequence (Q9C026 whole entry, change not shown): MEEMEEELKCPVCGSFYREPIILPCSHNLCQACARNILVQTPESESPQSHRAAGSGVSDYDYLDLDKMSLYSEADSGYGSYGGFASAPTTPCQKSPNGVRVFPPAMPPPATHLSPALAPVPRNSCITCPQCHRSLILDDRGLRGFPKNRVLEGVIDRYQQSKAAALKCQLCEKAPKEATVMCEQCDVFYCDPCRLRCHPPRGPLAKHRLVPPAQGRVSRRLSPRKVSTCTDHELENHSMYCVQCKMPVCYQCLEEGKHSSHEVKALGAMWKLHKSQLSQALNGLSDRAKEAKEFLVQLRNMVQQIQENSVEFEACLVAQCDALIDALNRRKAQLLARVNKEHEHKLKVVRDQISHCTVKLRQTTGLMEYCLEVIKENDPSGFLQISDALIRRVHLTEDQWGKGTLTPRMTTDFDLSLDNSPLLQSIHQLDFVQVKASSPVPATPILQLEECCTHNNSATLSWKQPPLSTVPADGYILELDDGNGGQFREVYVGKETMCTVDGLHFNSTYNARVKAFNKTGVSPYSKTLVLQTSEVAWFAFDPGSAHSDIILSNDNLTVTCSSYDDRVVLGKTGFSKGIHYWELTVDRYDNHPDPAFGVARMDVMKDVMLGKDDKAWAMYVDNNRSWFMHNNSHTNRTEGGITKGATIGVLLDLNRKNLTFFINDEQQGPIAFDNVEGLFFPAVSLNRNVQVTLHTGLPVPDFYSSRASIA
T6 sequence (Q9UJ41 whole entry, change not shown): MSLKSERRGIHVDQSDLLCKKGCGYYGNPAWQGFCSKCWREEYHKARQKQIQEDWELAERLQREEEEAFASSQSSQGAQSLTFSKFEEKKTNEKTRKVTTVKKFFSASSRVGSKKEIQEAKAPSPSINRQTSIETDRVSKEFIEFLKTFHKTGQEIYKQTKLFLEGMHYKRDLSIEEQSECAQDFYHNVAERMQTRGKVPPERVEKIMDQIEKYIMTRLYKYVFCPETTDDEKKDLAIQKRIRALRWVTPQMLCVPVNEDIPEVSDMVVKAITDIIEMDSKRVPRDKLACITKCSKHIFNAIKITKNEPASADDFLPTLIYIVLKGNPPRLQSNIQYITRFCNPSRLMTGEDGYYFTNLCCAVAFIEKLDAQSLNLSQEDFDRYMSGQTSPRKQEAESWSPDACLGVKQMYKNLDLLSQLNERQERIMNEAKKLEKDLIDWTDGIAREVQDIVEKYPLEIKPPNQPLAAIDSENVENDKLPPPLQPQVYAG
T11 sequence (Q13049 whole entry, change not shown): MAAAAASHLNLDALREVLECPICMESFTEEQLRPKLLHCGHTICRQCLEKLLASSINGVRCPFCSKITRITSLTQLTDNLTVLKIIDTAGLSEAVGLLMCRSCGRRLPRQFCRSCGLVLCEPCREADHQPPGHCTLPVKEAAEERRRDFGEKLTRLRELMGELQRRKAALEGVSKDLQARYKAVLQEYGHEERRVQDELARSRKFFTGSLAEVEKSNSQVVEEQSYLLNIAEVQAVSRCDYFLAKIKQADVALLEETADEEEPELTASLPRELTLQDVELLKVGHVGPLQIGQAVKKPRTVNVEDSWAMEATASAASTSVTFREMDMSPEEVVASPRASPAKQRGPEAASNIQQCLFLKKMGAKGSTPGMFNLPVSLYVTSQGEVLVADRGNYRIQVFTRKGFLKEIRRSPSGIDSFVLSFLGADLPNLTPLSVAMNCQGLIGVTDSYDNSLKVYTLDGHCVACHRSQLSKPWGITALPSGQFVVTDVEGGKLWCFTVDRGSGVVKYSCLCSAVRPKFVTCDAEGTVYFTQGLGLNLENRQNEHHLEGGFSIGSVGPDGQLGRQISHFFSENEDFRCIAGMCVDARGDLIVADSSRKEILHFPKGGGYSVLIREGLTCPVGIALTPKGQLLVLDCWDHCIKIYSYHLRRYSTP
T10 sequence (P36406 whole entry, change not shown): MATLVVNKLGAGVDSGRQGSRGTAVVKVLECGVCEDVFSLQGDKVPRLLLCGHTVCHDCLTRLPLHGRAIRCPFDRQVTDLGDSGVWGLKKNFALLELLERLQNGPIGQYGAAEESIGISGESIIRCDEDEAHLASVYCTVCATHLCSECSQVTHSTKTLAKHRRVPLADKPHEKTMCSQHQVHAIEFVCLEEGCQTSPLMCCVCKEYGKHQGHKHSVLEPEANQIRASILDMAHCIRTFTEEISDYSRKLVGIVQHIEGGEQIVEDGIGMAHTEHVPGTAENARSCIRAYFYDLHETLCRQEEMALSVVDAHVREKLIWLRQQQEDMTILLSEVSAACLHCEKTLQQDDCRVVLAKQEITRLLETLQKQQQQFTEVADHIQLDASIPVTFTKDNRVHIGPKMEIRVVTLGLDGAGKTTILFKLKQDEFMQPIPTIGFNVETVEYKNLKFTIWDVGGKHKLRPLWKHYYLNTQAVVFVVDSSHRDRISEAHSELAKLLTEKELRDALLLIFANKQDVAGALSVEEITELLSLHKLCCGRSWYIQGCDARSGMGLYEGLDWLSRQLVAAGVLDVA

SMILES: COc1ccc2c(c1)CCCN2C(=O)CCl [KB02]
inhibition at 100 µM (UniProt Q9UPQ4; [1]): 10%
inhibition at 500 µM (UniProt Q9UPQ4; [2]): 27%
KB02_500 uM_percent_inhibition (UniProt Q9C026; 500 uM): 69%
inhibition at 500 µM (UniProt Q9C026; [2]): 64%
inhibition at 100 µM (UniProt Q96EX2): 44%
inhibition at 500 µM (UniProt Q96EX2; 500 uM): 42%
inhibition at 100 µM (UniProt Q9H0A6; 100 uM, read-out: percent_inhibition): 44%
inhibition at 500 µM (UniProt Q9H0A6; [3]): 42%
inhibition at 100 µM (UniProt Q9BWF2; [1]): 10%
KB02_500 uM_percent_inhibition (UniProt Q9BWF2; 500 uM): 52%
inhibition at 500 µM (UniProt Q9BWF2; [2]): 36%

inhibition at 100 µM (UniProt Q9UJ41; [4]): 33%
inhibition at 100 µM (UniProt Q496Y0; 100 uM, read-out: percent inhibition): 26%
percent inhibition (UniProt Q496Y0; 500 uM): 52%
inhibition at 500 µM (UniProt Q496Y0; 500 uM, read-out: percent inhibition): 47%
KB05_100 uM_percent_inhibition (UniProt Q9BZR9; 100 uM): 16%
inhibition at 100 µM (UniProt Q9BZR9; [4]): 10%
KB05_500 uM_percent_inhibition (UniProt P49792): 75%
inhibition at 100 µM (UniProt Q96EX2): 17%
percent_inhibition (UniProt Q96EX2; 500 uM): 29%
inhibition at 500 µM (UniProt Q96EX2; 500 uM): 16%
inhibition at 500 µM (UniProt P36406; read-out: KB05_500 uM_percent_inhibition): 61%
percent_inhibition (UniProt Q9H0A6; 500 uM): 10%
inhibition at 500 µM (UniProt Q9H0A6; [3]): 16%
KB05_500 uM_percent_inhibition (UniProt Q9BWF2; 500 uM): 29%
inhibition at 500 µM (UniProt Q9BWF2; 500 uM, read-out: KB05_500 uM_percent_inhibition): 22%
inhibition at 100 µM (UniProt Q13049; [4]): 5%
SMILES: C=CC(=O)N(c1ccccc1)c1ccc(Br)cc1 [KB05]

SMILES: O=C(CCl)Nc1cc(C(F)(F)F)cc(C(F)(F)F)c1 [KBO3]
KB03_500 uM_percent_inhibition (UniProt Q9UPQ4; 500 uM): 32%
KB03_100 uM_percent_inhibition (UniProt Q9UJ41; 100 uM): 20%
percent inhibition (UniProt Q496Y0; 500 uM): 26%
KB03_100 uM_percent_inhibition (UniProt Q9C026; 100 uM): 13%
KB03_100 uM_percent_inhibition (UniProt Q9BZR9; 100 uM): 39%
KB03_500 uM_percent_inhibition (UniProt P49792): 79%
KB03_500 uM_percent_inhibition (UniProt P36406; 500 uM): 17%
KB03_100 uM_percent_inhibition (UniProt Q13049; 100 uM): 14%
